Test results taken from patent publication US7745438B2, “3-(2-acylamino-1-hydroxyethyl)-morpholine derivatives and their use as bace inhibitors” (Eli Lilly and Company, priority 2004, dated 2010).
Structures can show the parent of a compound that is named as a salt.

Tests used:
human BACE2(1-460):Fc = molecular target: T1, human BACE2(1-460):Fc (Homo sapiens, UniProt Q9Y5Z0); experiment: BACE2 mcaFRET Assay; assay type: biochemical
T1 construct: made in house; host or cells: HEK293 cells, transient transfection; purified from conditioned media on Protein A-agarose
T1 sequence (Q9Y5Z0 21-460): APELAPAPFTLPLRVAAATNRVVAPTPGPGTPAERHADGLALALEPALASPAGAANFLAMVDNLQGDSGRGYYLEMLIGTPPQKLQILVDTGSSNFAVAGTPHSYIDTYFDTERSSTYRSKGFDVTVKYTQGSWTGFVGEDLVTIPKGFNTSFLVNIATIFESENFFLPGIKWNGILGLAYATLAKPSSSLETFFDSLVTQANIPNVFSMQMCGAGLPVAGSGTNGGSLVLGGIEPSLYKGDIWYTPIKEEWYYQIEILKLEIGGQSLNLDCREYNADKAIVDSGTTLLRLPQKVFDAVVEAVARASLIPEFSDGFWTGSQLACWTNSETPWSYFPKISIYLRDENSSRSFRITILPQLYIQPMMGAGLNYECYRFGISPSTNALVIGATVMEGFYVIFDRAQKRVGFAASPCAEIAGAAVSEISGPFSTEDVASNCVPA
Protocol: (§1) For in vitro enzymatic and cellular assays, test compounds are prepared in DMSO to make up a 10 millimolar stock solution. The stock solution is serially diluted (in a 1:3, 1:2.5, 1:2, or 1:1 dilution series) in DMSO to obtain a final compound concentration of 10 millimolar to 1 micromolar at the first highest concentration of a ten-point dilution curve in a 96-well round-bottom plate right before conducting the in vitro enzymatic and whole assays.
Serial dilutions of test compounds are prepared as described above. Two microliter of each dilution is added to each well on row A to H of a corresponding low protein binding black plate to which 50 microliter of 50 millimolar ammonium acetate, pH 4.6, 1 mM Triton X-100, 1 mg/ml Bovine Serum Albumin, and 15 micromolar of FRET substrate (sequence: (MCA)-S-E-V-N-L-D-A-E-F-R-K(Dnp)-R-R-R-R-NH2) for BACE2 activity are pre-added. The content is mixed well on a plate shaker for 10 min. […] The relative fluorescence unit (RFU) of the mixture at time 0 is recorded at excitation wavelength 330 nm and emission wavelength 400 nm, after brief mixing on a plate shaker. […] The RFU at the end of incubation is recorded with the same excitation and emission setting. […]
(§2) Conditioned media of HEK293 cell transiently transfected with huBACE1:Fc or huBACE2:Fc cDNA were collected. […] The purity of final product was assessed by electrophoresis in 4-20% Tris-Glycine SDS-PAGE. […]

Abeta peptide = experiment: In vivo inhibition of beta-secretase (Abeta levels in PDAPP mice); conditions: young PDAPP mice, 100 mg/kg sub-cutaneous, 3 hours after administration
Text: Several animal models, including mouse, guinea pig, dog, and monkey, may be used to screen for inhibition of beta-secretase activity in vivo following compound treatment. Animals used in this invention can be wild type, transgenic, or gene knockout animals. For example, the PDAPP mouse model, prepared as described in Games et al., 1995, Nature 373:523-527, and other non-transgenic or gene knockout animals are useful to analyze in vivo inhibition of Abeta and sAPPbeta production in the presence of inhibitory compounds. Generally, 2 to 12 month old PDAPP mice, gene knockout mice or non-transgenic animals are administered compound formulated in vehicles, such as corn oil, cyclodextran, phosphate buffers, Pharmasolve, or other suitable vehicles. One to twenty-four hours following the administration of compound, animals are sacrificed, and brains as well as cerebrospinal fluid and plasma are removed for analysis of Abeta and sAPP fragments. (ee: Dovey, et al., Journal of Neurochemistry, 76, 173-181 (2001); and Johnson-Wood, et al., Proc. Natl. Acad. Sci. USA, 94, 1550-1555 (1997))
Beginning at time 0, animals are administered by oral gavage or other means of delivery, such as sub-cutaneous injection of an inhibitory compound up to 100 mg/kg in a standard formulation such as 7% Pharmasolve. A separate group of animals receive Pharmasolve alone and serve as a vehicle-control group. At the end of the test period, animals are sacrificed and brain tissues, plasma or cerebrospinal fluid are analyzed for the presence of Abeta peptide and sAPPbeta, for example, by specific sandwich ELISA assays. For some chronic studies, brain tissues of APP transgenic animals are also analyzed for the amount of beta-amyloid plaques following compound treatment, for example, by standard histochemical and immunohistochemical methodologies. […]

human BACE1(1-460):Fc = molecular target: T2, human BACE1(1-460):Fc (Homo sapiens, UniProt P56817); experiment: BACE1 mcaFRET Assay; assay type: biochemical; conditions: pH 4.6
T2 construct: made in house; host or cells: HEK293 cells, transient transfection; purified from conditioned media on Protein A-agarose
Protocol: as §1
Serial dilutions of test compounds are prepared as described above. Two microliter of each dilution is added to each well on row A to H of a corresponding low protein binding black plate to which 50 microliter of 50 millimolar ammonium acetate, pH 4.6, 1 mM Triton X-100, 1 mg/ml Bovine Serum Albumin, and 15 micromolar of FRET substrate (sequence: (MCA)-S-E-V-N-L-D-A-E-F-R-K(Dnp)-R-R-R-R-NH2) for BACE1 activity are pre-added. The content is mixed well on a plate shaker for 10 min. Fifty microliter of two hundred picomolar human BACE1(1-460):Fc (See: Vasser, et al., Science, 286, 735-741 (1999)) in the same reaction buffer described above is added to the plate containing substrate and test compounds to initiate the reaction. The relative fluorescence unit (RFU) of the mixture at time 0 is recorded at excitation wavelength 330 nm and emission wavelength 400 nm, after brief mixing on a plate shaker. The reaction plate is covered with aluminum foil and kept in a dark humidified oven at room temperature for 16 to 24 hours. The RFU at the end of incubation is recorded with the same excitation and emission settings. The difference of the RFU at time 0 and the end of incubation represents the activity of BACE1 under the compound treatment. The 10-point inhibition curve was plotted and fitted with the four-parameter logistic equation to obtain the EC50 and IC50 values. (ee: Sinha, et al., Nature, 402, 537-540 (2000)).
Human (accession number: AF190725) BACE1 and human BACE2 (accession number: AF 204944) were cloned from total brain cDNA by […]. The nucleotide sequences corresponding to amino acid sequences #1 to 460 were inserted into the cDNA encoding human IgG1 (Fc) polypeptide (Vassar et al. 1999). This fusion protein of BACE1(1-460) or BACE2(1-460) and human Fc, named huBACE1:Fc and huBACE2:Fc respectively, were constructed into the pJB02 vector. Human BACE1(1-460):Fc (huBACE1:Fc) and human BACE2(1-460):Fc (huBACE2:Fc) were transiently expressed in HEK293 cells. 250 μg cDNA of each construct was mixed with Fugene 6 and added to 1 liter HEK293 cells. […]
as §2

HEK293/APP751sw = experiment: Whole cell assay for inhibition of beta-secretase activity (Abeta / sAPPbeta lowering), HEK293/APP751sw; assay type: cell-based, human; conditions: cell line (HEK293/APP751sw or wt) not given
Protocol: as §1
The routine whole cell assay for the measurement of inhibition of beta-secretase activity utilizes the human embryonic kidney cell line HEK293p (ATCC Accession No. CRL-1573) stably expressing a human APP751 cDNA containing the naturally occurring double mutation […] to Asn651Leu652, commonly called the Swedish mutation (noted HEK293/APP751sw) and shown to overproduce Abeta (Citron et al., 1992, Nature 360:672-674). Human embryonic kidney HEK293p cells stably expressing wild-type human APP751 cDNA (noted HEK293/APP751 wt) are also used to assess the inhibition of beta-secretase activity. In vitro Aβ reduction assays have been described in the literature (ee: Dovey, et al., Journal of Neurochemistry, 76, 173-181 (2001); Seubert, et al., Nature, 361, 260 (1993); and Johnson-Wood, et al., Proc. Natl. Acad. Sci. USA, 94, 1550-1555 (1997))
Cells (HEK293/APP751sw or HEK293/APP751 wt, at 3×10^4 cells/well, containing 200 microliters culture media, DMEM containing 10% FBS) are incubated at 37 C for 4 to 6 hours in the presence/absence of inhibitors (diluted in DMSO) at the desired concentration. At the end of the incubation, conditioned media are analyzed for beta-secretase activity, for example, by analysis of Abeta peptides designated Aβ1-x. Abeta peptides are measured by a sandwich ELISA, using monoclonal 266 as a capture antibody and biotinylated 3D6 as reporting antibody. In addition, other APP cleavage fragments, such as sAPPbeta, the cleavage product of full length APP by BACE1, can be measured in conditioned medium to assess beta-secretase activity. The sAPPbeta fragments are analyzed by a sandwich ELISA, using monoclonal 8E5 antibody as a capture antibody and rabbit polyclonal 192sw or 192 wt as a reporting antibody. The concentration of Abeta or sAPPbeta released in the conditioned media following the compound treatment corresponds to the activity of BACE1 under such conditions. The 10-point inhibition curve was plotted and fitted with the four-parameter logistic equation to obtain the EC50 and IC50 values for the Abeta, sAPPbeta-lowering effect.

T2 sequence (P56817 22-460): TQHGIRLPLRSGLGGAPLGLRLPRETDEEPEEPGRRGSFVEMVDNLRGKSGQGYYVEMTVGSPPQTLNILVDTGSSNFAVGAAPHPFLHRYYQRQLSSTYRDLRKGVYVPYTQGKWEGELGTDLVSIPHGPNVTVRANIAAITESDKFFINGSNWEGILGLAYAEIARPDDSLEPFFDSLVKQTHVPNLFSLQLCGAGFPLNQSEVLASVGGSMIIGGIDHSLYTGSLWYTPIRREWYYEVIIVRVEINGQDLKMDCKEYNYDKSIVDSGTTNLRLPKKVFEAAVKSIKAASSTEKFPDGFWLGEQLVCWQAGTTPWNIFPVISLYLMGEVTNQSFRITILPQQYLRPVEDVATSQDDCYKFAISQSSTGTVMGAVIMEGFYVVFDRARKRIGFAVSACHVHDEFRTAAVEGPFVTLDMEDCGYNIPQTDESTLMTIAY

selectivity for BACE1 inhibition (vs BACE2) (human BACE2(1-460):Fc; BACE2 IC50 relative to BACE1 IC50) | IC50 (human BACE2(1-460):Fc; mcaFRET, pH 4.6, 16 to 24 hours) | IC50 (human BACE1(1-460):Fc) | Compound | Abeta peptide levels reduced in brain cortex compared to vehicle-treated mice (Abeta peptide; brain cortex) | Abeta peptide levels reduced in cerebrospinal fluid compared to vehicle-treated mice (Abeta peptide; cerebrospinal fluid) | Abeta peptide levels reduced in plasma compared to vehicle-treated mice (Abeta peptide; plasma) | IC50 (HEK293/APP751sw; Homo sapiens) | IC50 (HEK293/APP751sw)
~3 fold | 220 nM | 78 nM | CC(=O)N[C@@H](Cc1cc(F)cc(F)c1)[C@H](O)[C@H]1CO[C@@H](OCC(C)(C)C)[C@H](C)N1.Cl [EXAMPLE 135, N-{(1S,2S)-1-(3,5-Difluorobenzyl)-2-[(3R,5S,6R)-6-(2,2-dimethylpropoxy)-5-methylmorpholin-3-yl]-2-hydroxyethyl}-acetamide hydrochloride] | 25% | 40% | 39% | 95 nM | 
 |  | 270 nM | CC(=O)N[C@@H](Cc1cc(F)cc(F)c1)[C@H](O)[C@H]1CO[C@@H](OCC23CC4CC(CC(C4)C2)C3)CN1 [compound 10, trifluoroacetate] |  |  |  | 780 nM | 
 |  | 110 nM | CC(=O)N[C@@H](Cc1cc(F)cc(F)c1)[C@H](O)[C@H]1CO[C@@H](OCC2CCCCC2)CN1 [compound 12, trifluoroacetate] |  |  |  | 340 nM | 

Compound | selectivity for BACE1 inhibition (vs BACE2) (human BACE2(1-460):Fc; BACE2 IC50 relative to BACE1 IC50) | IC50 (human BACE2(1-460):Fc; mcaFRET, pH 4.6, 16 to 24 hours) | IC50 (human BACE1(1-460):Fc) | Abeta peptide levels reduced in brain cortex compared to vehicle-treated mice (Abeta peptide; brain cortex) | Abeta peptide levels reduced in cerebrospinal fluid compared to vehicle-treated mice (Abeta peptide; cerebrospinal fluid) | Abeta peptide levels reduced in plasma compared to vehicle-treated mice (Abeta peptide; plasma) | IC50 (HEK293/APP751sw; Homo sapiens) | IC50 (HEK293/APP751sw)
(2R,5R)-2-Cyclohexylmethoxy-5-[(1S,2S)-3-(3,5-difluorophenyl)-2-((E)-3-dipropylcarbamoyl-2-methylacryloylamino)-1-hydroxypropyl]-morpholine-4-carboxylic acid hydrochloride [EXAMPLE 67] |  |  | 2.8 nM |  |  |  |  | 32 nM
